Assay results as given in PubChem BioAssay AID1963958 (Molecular Pharmacology Branch, DTP, NCI, 2024).

Tested on: MDA-MB-231 multicell spheroids, viability
Assay: Anticancer human tumor MDA-MB-231 cell line growth inhibition [PI3K];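 also: spheroids exposed to agents for seven days before reading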;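 as to viability, T/C: percent of vehicle control luminescence with DMSO treated spheroids as 100%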
Conditions: for IC50: curve of first compound; for viability, T/C: stronger effect = lower value
Outline: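 Stroma-containing spheroids: tumor line, pooled-donor HUVEC, hMSC. Treatments: targeted agents with PI3K inhibitors. Dosing: clinically relevant, half-log spacing, 10 microM ceiling without known Cmax. Read-out: cell viability.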

[1] = second compound 0.00316 µM, first compound 0.0316 µM
[2] = second compound 0.00316 µM, first compound 0.1 µM
[3] = second compound 0.00316 µM, first compound 0.316 µM
[4] = second compound 0.00316 µM, first compound 1 µM
[5] = second compound 0.00316 µM, first compound 3.16 µM
[6] = second compound 0.00316 µM, first compound 10 µM
[7] = second compound 0.01 µM, first compound 0.0316 µM
[8] = second compound 0.01 µM, first compound 0.1 µM
[9] = second compound 0.01 µM, first compound 0.316 µM
[10] = second compound 0.01 µM, first compound 1 µM
[11] = second compound 0.01 µM, first compound 3.16 µM
[12] = second compound 0.01 µM, first compound 10 µM
[13] = second compound 0.0316 µM, first compound 0.0316 µM
[14] = second compound 0.0316 µM, first compound 0.1 µM
[15] = second compound 0.0316 µM, first compound 0.316 µM
[16] = second compound 0.0316 µM, first compound 1 µM
[17] = second compound 0.0316 µM, first compound 3.16 µM
[18] = second compound 0.0316 µM, first compound 10 µM
[19] = second compound 0.1 µM, first compound 0.0316 µM
[20] = second compound 0.1 µM, first compound 0.1 µM
[21] = second compound 0.1 µM, first compound 0.316 µM
[22] = second compound 0.1 µM, first compound 1 µM
[23] = second compound 0.1 µM, first compound 3.16 µM
[24] = second compound 0.1 µM, first compound 10 µM
[25] = second compound 0.316 µM, first compound 0.0316 µM
[26] = second compound 0.316 µM, first compound 0.1 µM
[27] = second compound 0.316 µM, first compound 0.316 µM
[28] = second compound 0.316 µM, first compound 1 µM
[29] = second compound 0.316 µM, first compound 3.16 µM
[30] = second compound 0.316 µM, first compound 10 µM
[31] = second compound 1 µM, first compound 0.0316 µM
[32] = second compound 1 µM, first compound 0.1 µM
[33] = second compound 1 µM, first compound 0.316 µM
[34] = second compound 1 µM, first compound 1 µM
[35] = second compound 1 µM, first compound 3.16 µM
[36] = second compound 1 µM, first compound 10 µM

Compound `Cn1ncc(Cl)c1-c1cc(C(=O)NC(CN)Cc2cccc(F)c2)sc1Cl` (stereo unspecified) + COc1c(OCCCN2CCOCC2)ccc2c3n(c(=NC(=O)c4cnc(N)nc4)nc12)CCN3 has an IC50 (second compound 0.00316 µM) of 2.62 µM, an IC50 (second compound 0.01 µM) of 2.08 µM and an IC50 (second compound 0.0316 µM) of 1.04 µM. For the same compound, the IC50 (second compound 0.1 µM) was under 0.0316 µM, the IC50 (second compound 0.316 µM) was under 0.0316 µM and the IC50 (second compound 1 µM) was under 0.0316 µM. For the same compound, the viability, T/C [1] was 99.2%, the viability, T/C [2] was 93.8% and the viability, T/C [3] was 84.5%. The viability, T/C [4] was 72%, the viability, T/C [5] was 44.6% and the viability, T/C [6] was 25.7%. The viability, T/C [7] was 78.6%, the viability, T/C [8] was 83.1% and the viability, T/C [9] was 74.2%. For the same compound, the viability, T/C [10] was 63.7%, the viability, T/C [11] was 42.3% and the viability, T/C [12] was 25.4%. The viability, T/C [13] was 60.2%, the viability, T/C [14] was 61.5% and the viability, T/C [15] was 60.8%. The viability, T/C [16] was 48.9%, the viability, T/C [17] was 34.8% and the viability, T/C [18] was 19.6%. It also gave a viability, T/C [19] of 48.2%, a viability, T/C [20] of 47.5% and a viability, T/C [21] of 46%. The viability, T/C [22] was 40.7%, the viability, T/C [23] was 29.9% and the viability, T/C [24] was 17.4%. It also gave a viability, T/C [25] of 32.5%, a viability, T/C [26] of 33.6% and a viability, T/C [27] of 29.9%. It also gave a viability, T/C [28] of 29.2%, a viability, T/C [29] of 20.9% and a viability, T/C [30] of 13.9%. For the same compound, the viability, T/C [31] was 25.8%, the viability, T/C [32] was 24.8% and the viability, T/C [33] was 24.4%. The viability, T/C [34] was 23.4%, the viability, T/C [35] was 22.2% and the viability, T/C [36] was 20.8%.
With `Cn1nccc1Nc1nccc(-c2ccn(C(CO)c3ccc(Cl)c(F)c3)c(=O)c2)n1` (stereo unspecified) + COc1c(OCCCN2CCOCC2)ccc2c3n(c(=NC(=O)c4cnc(N)nc4)nc12)CCN3 the IC50 (second compound 0.00316 µM) was 0.467 µM, the IC50 (second compound 0.01 µM) was 0.222 µM and the IC50 (second compound 0.0316 µM) was 0.0482 µM. The IC50 (second compound 0.1 µM) was under 0.0316 µM, the IC50 (second compound 0.316 µM) was under 0.0316 µM and the IC50 (second compound 1 µM) was under 0.0316 µM. The viability, T/C [1] was 74.5%, the viability, T/C [2] was 69.9% and the viability, T/C [3] was 48.3%. For the same compound, the viability, T/C [4] was 44%, the viability, T/C [5] was 37.7% and the viability, T/C [6] was 28%. The viability, T/C [7] was 65.9%, the viability, T/C [8] was 58.6% and the viability, T/C [9] was 46%. For the same compound, the viability, T/C [10] was 34.8%, the viability, T/C [11] was 28.3% and the viability, T/C [12] was 23.5%. It also gave a viability, T/C [13] of 50.3%, a viability, T/C [14] of 48.9% and a viability, T/C [15] of 41.8%. The viability, T/C [16] was 32.5%, the viability, T/C [17] was 26.6% and the viability, T/C [18] was 20.4%. The viability, T/C [19] was 41.6%, the viability, T/C [20] was 34.3% and the viability, T/C [21] was 29.3%. It also gave a viability, T/C [22] of 25.9%, a viability, T/C [23] of 22.4% and a viability, T/C [24] of 13.1%. It also gave a viability, T/C [25] of 25.8%, a viability, T/C [26] of 22.8% and a viability, T/C [27] of 17.8%. For the same compound, the viability, T/C [28] was 17%, the viability, T/C [29] was 13.2% and the viability, T/C [30] was 8.91%. For the same compound, the viability, T/C [31] was 20.8%, the viability, T/C [32] was 16.8% and the viability, T/C [33] was 13.8%. The viability, T/C [34] was 12.7%, the viability, T/C [35] was 10.5% and the viability, T/C [36] was 7.95%.
With `Cn1ncnc1[C@H]1c2n[nH]c(=O)c3cc(F)cc(c23)N[C@@H]1c1ccc(F)cc1` + COc1c(OCCCN2CCOCC2)ccc2c3n(c(=NC(=O)c4cnc(N)nc4)nc12)CCN3 the IC50 (second compound 0.00316 µM) was over 0.1 µM, the IC50 (second compound 0.01 µM) was over 0.1 µM and the IC50 (second compound 0.0316 µM) was 0.0384 µM. The IC50 (second compound 0.1 µM) was under 0.000316 µM, the IC50 (second compound 0.316 µM) was under 0.000316 µM and the IC50 (second compound 1 µM) was under 0.000316 µM. For the same compound, the viability, T/C (second compound 0.00316 µM, first compound 0.000316 µM) was 94%, the viability, T/C (second compound 0.00316 µM, first compound 0.001 µM) was 89.6% and the viability, T/C (second compound 0.00316 µM, first compound 0.00316 µM) was 91.4%. For the same compound, the viability, T/C (second compound 0.00316 µM, first compound 0.01 µM) was 78.5%, the viability, T/C [1] was 78.5% and the viability, T/C [2] was 72.9%. It also gave a viability, T/C (second compound 0.01 µM, first compound 0.000316 µM) of 76.4%, a viability, T/C (second compound 0.01 µM, first compound 0.001 µM) of 76.7% and a viability, T/C (second compound 0.01 µM, first compound 0.00316 µM) of 68.9%. The viability, T/C (second compound 0.01 µM, first compound 0.01 µM) was 64.8%, the viability, T/C [7] was 67.2% and the viability, T/C [8] was 60.3%. For the same compound, the viability, T/C (second compound 0.0316 µM, first compound 0.000316 µM) was 57.8%, the viability, T/C (second compound 0.0316 µM, first compound 0.001 µM) was 59.2% and the viability, T/C (second compound 0.0316 µM, first compound 0.00316 µM) was 53.8%. It also gave a viability, T/C (second compound 0.0316 µM, first compound 0.01 µM) of 53.5%, a viability, T/C [13] of 51.7% and a viability, T/C [14] of 46.1%. For the same compound, the viability, T/C (second compound 0.1 µM, first compound 0.000316 µM) was 46.4%, the viability, T/C (second compound 0.1 µM, first compound 0.001 µM) was 46.6% and the viability, T/C (second compound 0.1 µM, first compound 0.00316 µM) was 43%. For the same compound, the viability, T/C (second compound 0.1 µM, first compound 0.01 µM) was 43.7%, the viability, T/C [19] was 39.7% and the viability, T/C [20] was 37.5%. The viability, T/C (second compound 0.316 µM, first compound 0.000316 µM) was 31.8%, the viability, T/C (second compound 0.316 µM, first compound 0.001 µM) was 32.3% and the viability, T/C (second compound 0.316 µM, first compound 0.00316 µM) was 32.4%. The viability, T/C (second compound 0.316 µM, first compound 0.01 µM) was 29.6%, the viability, T/C [25] was 30.1% and the viability, T/C [26] was 25.7%. It also gave a viability, T/C (second compound 1 µM, first compound 0.000316 µM) of 24.4%, a viability, T/C (second compound 1 µM, first compound 0.001 µM) of 23.5% and a viability, T/C (second compound 1 µM, first compound 0.00316 µM) of 24.6%. It also gave a viability, T/C (second compound 1 µM, first compound 0.01 µM) of 23.5%, a viability, T/C [31] of 25.7% and a viability, T/C [32] of 22.4%.
